The source of these data is patent publication US12377087B2, “Compounds for the treatment of cancer” (UNIVERSITY OF LOUISVILLE RESEARCH FOUNDATION, INC., priority 2015, dated 2025).

In data set [1] the test system is H460 cells. The experiment in a line: proliferation / viable cell count (trypan blue) of H460 cells. It is filed as cell-based, human. The following applies: for proliferation of H460 NSCLC cells, viable cells by Trypan blue exclusion: increasing concentrations, counts at 48 hours shown. The method, then:
Cell Viability: Cells were incubated in 20% trypan blue (Sigma) for 5 minutes. Cells excluding trypan blue were counted using a standard hemocytometer (Hausser Scientific) to determine total numbers of viable cells. Data are expressed as mean±SD of three experiments. Proliferation Assays: H460 non-small cell lung cancer cells were plated in 24 well plates and exposed to increasing concentrations of the indicated inhibitors of Formula IV (FBR1-02 corresponds to [drawing 47] DMSO was used as vehicle. After 24, 48 and 72 hours of exposure, cells were detached and viable cells were counted by Trypan blue exclusion (representative counts at 48 hours shown).

A short description of data set [2]: oral and intravenous pharmacokinetics of MPN-2. It is filed as in vivo. The following applies: CD-1 mice (N=3).
Data set [3] relates to H460 cells. The experiment in a line: ATP measurements in H460 cells. Format: cell-based, human. The following applies: H460, indicated concentrations of MPN-2, 48 hours. The method, then:
Cells were lysed and intracellular ATP determined as described previously. For example, cells were washed (while still adherent) with cold PBS 1×, lysed with Passive Lysis Buffer (1×; Molecular Probes, Invitrogen) added directly to the plates, and immediately harvested by scraping. The lysates were flash frozen (to −80° C.) and thawed (to 37° C.) once to accomplish complete lysis and then centrifuged (at 4° C.) for 30 seconds to clear the lysates. Intracellular ATP levels were determined using a bioluminescence assay (Molecular Probes), utilizing recombinant firefly luciferase and its substrate, D-luciferin. The luminescence was read in a TD-20/20 luminometer (Turner Designs) at 560 nm. The ATP values were calculated using an ATP standard curve. The protein concentrations of the lysates were estimated using the BCA assay (Pierce Biotechnology) and ATP was expressed as pmol/μg protein. All data are expressed as the mean±SD of three experiments. Statistical significance was assessed by the two-sample t test (independent variable).

The subject of data set [4] is H460 cells. Put plainly: Glycolysis assay (3H2O from 5-[3H]glucose) in H460 cells. The note with it: H460, indicated concentrations of MPN-2, 48 hours. Format: cell-based, human. The method, then:
Cells growing in 6-well plates were incubated in 500 μl of complete medium containing 1 μCi of 5-[^3H]glucose per well for 60 min in 5% CO2 at 37° C. Media was collected, ^3H2O formed via glycolysis from the 5-[^3H]glucose measured and counts normalized as previously described. For example, the medium was then collected and centrifuged to pellet any suspended cells. To separate the ^3H2O formed via glycolysis from the 5-[^3H]glucose added to the medium, an evaporation technique in a sealed system was utilized. Briefly, 150 μl aliquots of medium were added to open tubes that were placed upright inside scintillation vials containing 1 ml of H2O. The scintillation vials were sealed, and the ^3H2O produced by glycolysis through enolase and released to the medium was allowed to equilibrate with the H2O in the outer vial for 48 h at 37° C. The amounts of ^3H2O that had diffused into the surrounding H2O was measured on a Tri-Carb 2910 liquid scintillation analyzer (Perkin Elmer) and compared with ^3H2O and 5-[^3H]glucose standards. Protein concentration was determined using the BCA assay and counts were normalized to protein concentration. All data are expressed as the mean±SD of three experiments. Statistical significance was assessed by the two-sample t test (independent variable).

The test system of data set [5] is H460 cells. The experiment in a line: F2,6BP measurements in H460 cells. Format: cell-based, human. The following applies: H460, indicated concentrations of MPN-2. The method, then: F2,6BP measurements: Cells or tissues were prepared as previously described and F2,6BP content measured using a coupled enzyme reaction following the method of Van Schaftingen et at (Van Schaftingen E et al. A kinetic study of pyrophosphate: fructose-6-phosphate phosphotransferase from potato tubers. Application to a microassay of fructose 2,6-bisphosphate. Eur J Biochem 1982 December; 129(1): 191-5) and normalized to total cellular protein measured by the bicinchoninic acid assay (BCA, Thermo Scientific). […] In order to measure F2,6BP, cells were harvested, washed with PBS, lysed in NaOH/Tris acetate by heating at 80° C. and lysates neutralized to pH 7.2. F2,6BP content was measured using a coupled enzyme reaction following the method of Van Schaftingen et al (Eur J Biochem. 1982; 129(1): 191-195). The F2,6BP concentration was normalized to total cellular protein measured by the bicinchoninic acid assay (BCA, Thermo Scientific) All data are expressed as the mean±SD of three experiments. Statistical significance was assessed by the two-sample t test (independent variable).

For data set [6], the system named is Lewis lung carcinomas. Put plainly: Lewis lung carcinoma tumor growth in mice. It is filed as in vivo, C57BL/6 mice. The following applies: C57BL/6 mice, intraperitoneal injection 10 mg/kg daily, eleven days.
In data set [7] the test system is SK-BR-3. Put plainly: proliferation of SK-BR-3 cells. It is filed as cell-based. The note with it: SK-BR-3, 24-72 hours (72 hours shown). The method, then: Cell Viability: Cells were incubated in 20% trypan blue (Sigma) for 5 minutes. Cells excluding trypan blue were counted using a standard hemocytometer (Hausser Scientific) to determine total numbers of viable cells. Data are expressed as mean±SD of three experiments.

With `O=[N+]([O-])OCCCCCNc1ccnc2ccccc12` [FBR1-02], the “proliferation of H460 NSCLC cells, viable cells by Trypan blue exclusion” value in data set [1] was “decreased proliferation of cancer cells”.

Take “5-[(8-methoxy-2-methylquinolin-1-ium-4-yl)amino]pentyl nitrate [MPN-2]”: in data set [2], the oral bioavailability entry is “high oral bioavailability”. Moreover, in data set [3], the ATP production entry is “significantly decreased”. Also, the intracellular glycolysis result in data set [4] is on record as “significantly decreased”. Besides, in data set [5], the “F2,6BP production” value was “significantly inhibited”. Moreover, in data set [6], the “tumor growth of Lewis lung carcinomas” value is listed as “suppressed the growth”. Moreover, the proliferation result in data set [1] (H460, 24-72 hours (72 hours shown)) was “decreased proliferation”; in data set [7] it was “decreased proliferation”. Also, the “proliferation, viable cells” value in data set [1] (H460 NSCLC, 48 hours and 72 hours) is reported as “decreased the proliferation”.

Turning to `COc1cccc2c(NCCCCCNS(C)(=O)=O)ccnc12` [FBR1-09], the “proliferation of H460 NSCLC cells, viable cells by Trypan blue exclusion” value in data set [1] was “decreased proliferation of cancer cells”.
